Results taken from PubChem BioAssay (NCI).
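Following 48 hours of exposure in 96-well plates, responses at five concentrations were used to interpolate endpoints linearly. Definition used: TGI = concentration required for complete inhibition of growth.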

Tests used:
Assay in all cases: NCI tumour cell line growth inhibition, 48 h
HOP-62 NSCLC = test system: HOP-62 NSCLC
PC-3 prostate = test system: PC-3 prostate
OVCAR-4 ovarian = test system: OVCAR-4 ovarian
SK-MEL-2 melanoma = test system: SK-MEL-2 melanoma
NCI-H23 lung = test system: NCI-H23 lung
A498 renal = test system: A498 renal
OVCAR-5 ovarian = test system: OVCAR-5 ovarian
SR leukemia = test system: SR leukemia
OVCAR-3 ovarian = test system: OVCAR-3 ovarian
SNB-75 CNS = test system: SNB-75 CNS
OVCAR-8 ovarian = test system: OVCAR-8 ovarian

Row | Compound | TGI (HOP-62 NSCLC) | TGI (PC-3 prostate) | TGI (OVCAR-4 ovarian) | TGI (SK-MEL-2 melanoma) | TGI (NCI-H23 lung) | TGI (A498 renal) | TGI (OVCAR-5 ovarian) | TGI (SR leukemia) | TGI (OVCAR-3 ovarian) | TGI (SNB-75 CNS) | TGI (OVCAR-8 ovarian)
1 | Nc1cccc(OCc2nc(N)nc(N)c2-c2ccc(Cl)cc2)c1 | > 100 µM | > 100 µM | > 100 µM | > 100 µM | > 100 µM | > 100 µM | > 100 µM | > 100 µM | > 100 µM | > 100 µM | > 100 µM
2 | CN(/N=C\c1ccc2ccccc2c1)C1=NCCCCN1 | 90.7 µM | 36 µM | > 100 µM | 45.4 µM | > 100 µM | 56.6 µM | > 100 µM | 68.7 µM | > 100 µM | 59.3 µM | > 100 µM
3 | C=C(Cl)C(Cl)(CBr)CCC(Cl)C(C)(C)Cl (stereo unspecified) | 4.04 µM | 3.36 µM | 3.88 µM | 1.84 µM | 34.3 µM | 4.04 µM | 7.41 µM | 39.4 µM | 3.34 µM | 1.77 µM | 13 µM
4 | N#Cc1c(NC(=S)NCc2ccccc2)sc2c1CCN(N1CCc3c(sc(NC(=S)NCc4ccccc4)c3C#N)C1)C2 | > 100 µM | > 100 µM | > 100 µM | > 100 µM | > 100 µM | > 100 µM | > 100 µM | > 100 µM | > 100 µM | > 100 µM | > 100 µM
5 | Cc1cc(=Nc2ccc3c(c2)c(N)cc(C)[n+]3C)nc(N)n1C | > 100 µM | > 100 µM | > 100 µM | > 100 µM | > 100 µM | > 100 µM | > 100 µM | > 100 µM | > 100 µM | > 100 µM | > 100 µM
6 | NC(=O)N(O)c1cccc(Br)c1 | > 100 µM | > 100 µM | > 100 µM | > 100 µM | > 100 µM | > 100 µM | > 100 µM | > 100 µM | > 100 µM | > 100 µM | > 100 µM
